Experimental data: patent US10065943B2, “Pyrrolidine derivatives as angiotensin II type 2 antagonists” (NOVARTIS AG, priority 2015, dated 2018)

molecular target: T1, human AT2 receptor (Homo sapiens, UniProt P50052); experiment: AT2 receptor binding ([125I]CGP 42112A displacement, CHO-K1 membranes); details: [125I]CGP 42112A 0.05 nM, membranes of CHO-K1 cells expressing human AT2 receptor; Ki from IC50 by Cheng-Prussoff equation; read-out: Ki
T1 construct: membranes prepared in house
T1 sequence (P50052 1-363): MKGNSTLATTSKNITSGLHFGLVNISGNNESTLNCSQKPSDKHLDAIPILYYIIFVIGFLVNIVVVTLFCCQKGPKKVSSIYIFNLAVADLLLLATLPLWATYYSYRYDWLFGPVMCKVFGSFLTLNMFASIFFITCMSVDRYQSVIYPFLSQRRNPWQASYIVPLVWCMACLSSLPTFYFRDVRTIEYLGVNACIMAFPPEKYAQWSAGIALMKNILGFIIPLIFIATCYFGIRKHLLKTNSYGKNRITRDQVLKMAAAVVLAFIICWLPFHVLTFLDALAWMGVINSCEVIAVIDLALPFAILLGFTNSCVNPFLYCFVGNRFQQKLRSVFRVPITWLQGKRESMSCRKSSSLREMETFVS
Excerpt: Reagents were purchased from Sigma-Aldrich, unless otherwise specified. Dialyzed fetal bovine serum (FBS) was from Life Technologies (cat. no. 10073772). Valiscreen® human angiotensin AT2 receptor cell line (cat. no. ES-070-C), [^125I]CGP 42112A (cat. no. NEX324025UC) and MicroScint™ 40 (cat. no. 6013641) were purchased from PerkinElmer. CGP 42112A (cat. no. 2569) and PD 123,319 ditrifluoroacetate (cat. no. 1361) were from Tocris Biosciences.
• 1. Growth medium • EX-CELL® CHO DHFR^− medium • 10% FBS, dialysed • 1 mM sodium pyruvate • 2 mM L-glutamine • 2. Harvesting buffer • PBS • 2 mM EDTA • 3. Suspension buffer • 50 mM Tris-HCl, pH 7.4 • 10 mM EDTA • 4. Resuspension buffer • 50 mM Tris-HCl, pH 7.4 • 0.1 mM EDTA • 0.1% sucrose • 5. Binding assay buffer • 50 mM Tris-HCl, pH 7.4 • 5 mM MgCl2 • 1 mM EDTA • 0.1% gelatin • 6. Wash buffer • 50 mM Tris-HCl, pH 7.4 Procedure for Membrane Preparation • Valiscreen® CHO-K1 cells stably expressing the human AT2 receptor were cultured in growth medium. • Cells were seeded into T-175 flasks and grown to 70-80% confluence. • Medium was removed from confluent flasks and cells were washed with warm PBS. • Cells were harvested by incubating with harvesting buffer for 10 min at 37° C., and then transferred to a centrifuge tube on ice. • Cells were centrifuged at 200 g for 5 min at 4° C. • Cell pellets were homogenised in ice-cold suspension buffer. • Homogenates were centrifuged at 40,000 g for 15 min at 4° C. • Pellets were resuspended in ice-cold resuspension buffer and centrifuged at 40,000 g for 15 min at 4° C. • Final pellets were homogenised in ice-cold resuspension buffer. • Protein concentrations were determined by BCA assay method with BSA as standard. Compound Preparation
Compounds were prepared from 10 mM stock solutions in 100% DMSO. Dilutions were made using electronic multichannel pipettes.
• Compounds dilutions were prepared in 100% DMSO at 100× final assay concentration. • Compounds were diluted in 100% DMSO to the appropriate maximal concentration. • 30 μL compound was added to row A. • 21.6 μL of 100% DMSO was added to rows B-H. • Transfer 10 μL from row A into row B (half log dilution). • Transfer 10 μL from row B into row C (half log dilution). • Transfer 10 μL from row C into row D (half log dilution). • Transfer 10 μL from row D into row E (half log dilution). • Transfer 10 μL from row E into row F (half log dilution). • Transfer 10 μL from row F into row G (half log dilution). • Transfer 10 μL from row G into row H (half log dilution). Working Plate Preparation (96-Well Plate) • Compounds were diluted 10-fold in assay buffer. • 10 μL compound solution from dose plate was transferred to corresponding well of working plate. • 90 μL assay buffer was added to the wells of working plate. • Working solutions contained 10% DMSO in assay buffer (1% DMSO final assay concentration). Controls • Total binding (high control) was determined in the absence of unlabelled ligand. A solution of 10% DMSO in assay buffer was prepared. • Non-specific binding (low control) was determined in the presence of a vast excess (10 μM) of PD 123,319. 1 mM stock solution of PD 123,319 in water was diluted 10-fold with 10% DMSO in assay buffer. Assay Plate Preparation (96-Well Plate)
15 μL compound solution was transferred to duplicate wells of assay plate. 5 compounds were tested per plate. 15 μL control solutions were transferred to columns 1 and 12 of assay plate.

Row | Structure (SMILES) | Ki
1 | O=C(NS(=O)(=O)C1CC1)[C@@H]1C[C@H](N2CCCOc3ccc(F)cc32)CN1C(=O)C(c1ccccc1)c1ccccc1 [Compound 37, (2S,4S)—N-(Cyclopropylsulfonyl)-1-(2,2-diphenylacetyl)-4-(7-fluoro-3,4-dihydrobenzo[b][1,4]oxazepin-5(2H)-yl)pyrrolidine-2-carboxamide] | 4.1 nM
2 | O=C(O)[C@@H]1C[C@H](N2CCCCc3cc(F)ccc32)CN1C(=O)C(c1ccccc1)c1ccccc1 [Compound 5, (2S,4S)-1-(2,2-Diphenylacetyl)-4-(7-fluoro-2,3,4,5-tetrahydro-1H-benzo[b]azepin-1-yl)pyrrolidine-2-carboxylic acid] | 9.8 nM
3 | CN(C)S(=O)(=O)NC(=O)[C@@H]1C[C@H](N2CCCOc3cc(F)c(F)cc32)CN1C(=O)C(c1ccccc1)c1ccccc1 [Compound 39, (2S,4S)-4-(7,8-Difluoro-3,4-dihydrobenzo[b][1,4]oxazepin-5(2H)-yl)-N—(N,N-dimethylsulfamoyl)-1-(2,2-diphenylacetyl)pyrrolidine-2-carboxamide] | 10.2 nM
4 | O=C(O)[C@@H]1C[C@@H](N2CCCCc3ccccc32)CN1C(=O)C(c1ccccc1)c1ccccc1 [Compound 22, (2S,4R)-1-(2,2-diphenylacetyl)-4-(2,3,4,5-tetrahydro-1H-benzo[b]azepin-1-yl)pyrrolidine-2-carboxylic acid] | 9.8 nM
5 | O=C(O)[C@@H]1C[C@H](N2CCOc3ccccc3C2)CN1C(=O)C(c1ccccc1)c1ccccc1 [Compound 19, (2S,4S)-4-(2,3-Dihydrobenzo[f][1,4]oxazepin-4(5H)-yl)-1-(2,2-diphenylacetyl)pyrrolidine-2-carboxylic acid] | 99 nM
6 | O=C(O)[C@@H]1C[C@H](N2CCCOc3ccc(F)cc32)CN1C(=O)C(c1ccccc1)c1ccccc1 [Compound 8, (2S,4S)-1-(2,2-Diphenylacetyl)-4-(7-fluoro-3,4-dihydrobenzo[b][1,4]oxazepin-5(2H)-yl)pyrrolidine-2-carboxylic acid] | 1.4 nM
7 | C[C@@]1(C(=O)NS(=O)(=O)C2CC2)C[C@H](N2CCCOc3cc(F)c(F)cc32)CN1C(=O)C(c1ccccc1)c1ccccc1 [Compound 42b, (2S,4S)—N-(cyclopropylsulfonyl)-4-(7,8-difluoro-3,4-dihydrobenzo[b][1,4]oxazepin-5(2H)-yl)-1-(2,2-diphenylacetyl)-2-methylpyrrolidine-2-carboxamide] | 11 nM
8 | O=C(NS(=O)(=O)C1CC1)[C@@H]1C[C@H](N2CCCCc3ccccc32)CN1C(=O)C(c1ccccc1)c1ccccc1 [Compound 43, (2S,4S)—N-(Cyclopropylsulfonyl)-1-(2,2-diphenylacetyl)-4-(2,3,4,5-tetrahydro-1H-benzo[b]azepin-1-yl)pyrrolidine-2-carboxamide] | 8.6 nM
9 | O=C(O)[C@@H]1C[C@@H](N2CCCCc3ccncc32)CN1C(=O)C(c1ccccc1)c1ccccc1 [Compound 28, (2S,4R)-1-(2,2-Diphenylacetyl)-4-(2,3,4,5-tetrahydro-1H-pyrido[3,4-b]azepin-1-yl)pyrrolidine-2-carboxylic acid] | 33 nM
10 | O=C(O)[C@@H]1C[C@H](N2CCCCc3sccc32)CN1C(=O)C(c1ccccc1)c1ccccc1 [Compound 11, (2S,4S)-1-(2,2-Diphenylacetyl)-4-(5,6,7,8-tetrahydro-4H-thieno[3,2-b]azepin-4-yl)pyrrolidine-2-carboxylic acid] | 4.9 nM
11 | O=C(O)[C@@H]1C[C@H](N2CCCOc3cc(F)ccc32)CN1C(=O)C(c1ccccc1)c1ccccc1 [Compound 9, (2S,4S)-1-(2,2-diphenylacetyl)-4-(8-fluoro-3,4-dihydrobenzo[b][1,4]oxazepin-5(2H)-yl)pyrrolidine-2-carboxylic acid] | 3.1 nM
12 | CN1CCN([C@H]2C[C@@H](C(=O)O)N(C(=O)C(c3ccccc3)c3ccccc3)C2)Cc2ccccc21 [Compound 17, (2S,4S)-1-(2,2-Diphenylacetyl)-4-(1-methyl-1,2,3,5-tetrahydro-4H-benzo[e][1,4]diazepin-4-yl)pyrrolidine-2-carboxylic acid] | 178 nM
